Source: patent US3939144A, “Manufacture of N-(benzenesulfonyl)-5-O-desosaminyl-erythromycilamine derivatives” (Pliva, Pharmaceutical and Chemical Works, priority 1974, dated 1976)
≈ marks a conversion by molar mass, not a printed value.

What was measured:
Format in all cases: cell-based
Settings in all cases: compound alone
E.coli 7920 = experiment: Preliminary bacteriological tests, MIC, E.coli 7920
E.coli 8141 = experiment: Preliminary bacteriological tests, MIC, E.coli 8141
Strept.haem. = experiment: Preliminary bacteriological tests, MIC, Strept.haem.

CCC1OC(=O)C(C)C(O)C(C)C(OC2OC(C)CC(N(C)C)C2O)C(C)(O)CC(C)C(NS(=O)(=O)c2ccc(Br)cc2)C(C)C(O)C1(C)O (stereo not drawn) [DEASBr, N-(4-bromo-benzenesulfonyl)-5 -O-desosaminyl-erythromycilamine]
MIC (E.coli 7920): 250 µg/mL (≈ 314 µM)
MIC (E.coli 8141): 500 µg/mL (≈ 628 µM)
MIC (Strept.haem.): 62.2 µg/mL (≈ 78.2 µM)

CCC1OC(=O)C(C)C(O)C(C)C(OC2OC(C)CC(N(C)C)C2O)C(C)(O)CC(C)C(NS(=O)(=O)c2ccc(Cl)cc2)C(C)C(O)C1(C)O (stereo not drawn) [DEASCl, N-(4-chloro-benzenesulfonyl)-5 -O-desosaminyl-erythromycilamine]
MIC (E.coli 7920): 250 µg/mL (≈ 333 µM)
MIC (E.coli 8141): 250 µg/mL (≈ 333 µM)
MIC (Strept.haem.): 125 µg/mL (≈ 166 µM)

CCC1OC(=O)C(C)C(O)C(C)C(OC2OC(C)CC(N(C)C)C2O)C(C)(O)CC(C)C(NS(=O)(=O)c2ccc(N)cc2)C(C)C(O)C1(C)O (stereo not drawn) [DEASNH2, N-(4-amino-benzenesulfonyl)-5-0-desosaminyl-erythromycilamine]
MIC (E.coli 7920): 125 µg/mL (≈ 171 µM)
MIC (E.coli 8141): 125 µg/mL (≈ 171 µM)
MIC (Strept.haem.): 62.2 µg/mL (≈ 85 µM)

CCC1OC(=O)C(C)C(O)C(C)C(OC2OC(C)CC(N(C)C)C2O)C(C)(O)CC(C)C(NS(=O)(=O)c2ccc(C)cc2)C(C)C(O)C1(C)O (stereo not drawn) [DEAST, N-(4-methyl-benzenesulfonyl)-5 -O-desosaminyl-erythromycilamine]
MIC (E.coli 7920): 125 µg/mL (≈ 171 µM)
MIC (E.coli 8141): 125 µg/mL (≈ 171 µM)
MIC (Strept.haem.): 62.2 µg/mL (≈ 85.1 µM)
